Consider 6 compounds from patent US20130035358A1, “Bis Aromatic Compounds for Use as LTC4 Synthase Inhibitors” (priority 2010, published 2013).

Values after ≈ are worked out from the molar mass of the structure shown.

Series [1] is described as follows: Thermodynamic aqueous solubility in USP phosphate buffer (Example 25). It is filed as physicochemical. The settings on record: aqueous buffer, thermodynamic from solid; USP phosphate buffer pH 7.4, 24 h at 20° C., LC-MS/MS; read-out: Thermodynamic aq solubility. On the procedure: The method described here was developed to accurately determine the aqueous solubility of compounds of the invention in buffer solution at a given pH.
Solid material (1 mg) of test compound is added to a glass vial followed by 1 ml of buffer solution (pH 7.4 if another pH not is stated). The solution is left on an orbital shaker for 24 h at 20° C. After incubation, the remaining solid material is separated from solution and the solubility is quantified using LC-MS/MS.
Prepare 0.2 M monobasic potassium phosphate solution by dissolving 27.22 g of KH2PO4 (MW=136.09 g/mol) in water, dilute with water to 1000 mL.
Add 250 mL of the monobasic potassium phosphate solution in a 1000 mL volumetric flask together with 195.5 mL 0.2M NaOH (aq). Add water to 1000 mL. Check pH.
Compounds of the invention/examples to be tested were provided as solid material, weighed into glass vials (2 mL). Each vial contains approximately 1 mg solid compound, two vials/compound are prepared, i.e. duplicate samples of each compound. If a freshly prepared 10 mM DMSO stock solution was available, this solution was used for MS optimization and preparation of standards. If a DMSO-stock solution was not available, a 10 mM solution from solid material 1 mg was prepared.
• Test compounds are employed as solid material. Since duplicate samples are prepared for each compound, each test compound arrives in two vials (1+1 mg). Samples are denoted as sample 1 and 2. • Note amount of substance in each vial. Add USP phosphate buffer pH 7.4 (1 mL) to each sample vial and seal vials using screw caps. Determine whether the solutions are saturated or if compounds are dissolved, note appearance and time. Start incubation; the samples are incubated on an orbital shaker (450 rpm) at 20° C. for 24 hours.
• Take out the 1 mM DMSO-stock solutions of compounds that are to be tested from freezer. If no 1 mM solutions are available, use master solutions with concentration of 10 mM. Allow the solutions to thaw at rt. • Collect two 96-deep well plates, glass inserts, sealing film, and an 8-channel expandable pipette with tall tips. • Abort shaking after 24 hour. • Note if samples are saturated or if compounds have dissolved. • Transfer 720 μL of sample slurry from each sample vial into glass inserts in a 96-deep well plate using an 8-channel expandable pipette. Samples 1 and 2 are transferred to separate plates. Thus, all samples 1 are placed in one plate and all samples 2 in the second plate. • Seal the plates using sealing film. • Centrifuge the plates at 3000 rpm for 15 min at rt. Set acceleration to 9 and brake to 7 (9=fastest acc/brake, 0=slowest acc/brake). • Transfer the supernatants to new glass inserts using an 8-channel pipette, centrifuge samples a second time. • Repeat the procedure above, i.e. centrifuge samples a third time. • After the third centrifugation, transfer supernatant to glass vials, seal vials with screw caps. Control that the solutions are clear and that no particles are present in sample. If solid material is observed, an additional centrifugation step is performed. • Standards are prepared from DMSO-stock solutions (1 or 10 mM). For each compound, transfer […] 1 mM solution to a glass vial, add DMSO (90 μL) to reach a final concentration of 100 μM, seal with screw cap and mix solution quickly on a vortex mixer. Further dilute the 100 μM solution with a 1:1 mixture of acetonitrile and USP phosphate buffer (pH 7.4) to standards with concentration 1000, 500, 100, 25, 2, and 1 nM. Standards are prepared in test tubes.
• Place standards in autosampler. • Try out the dilution of solubility samples so that their response will be within the standard curve. Dilute solubility sample one (or two) with the 1:1 mixture of acetonitrile:buffer. […]

Series [2] addresses T1, LTC4 synthase (Homo sapiens, UniProt Q16873).
T1 sequence (Q16873 1-150): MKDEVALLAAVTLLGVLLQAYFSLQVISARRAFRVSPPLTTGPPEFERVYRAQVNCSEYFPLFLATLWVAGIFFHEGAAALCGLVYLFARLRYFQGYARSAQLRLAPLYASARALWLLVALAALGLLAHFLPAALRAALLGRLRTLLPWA
Put plainly: Test 1 in vitro assay: LTC4 synthase converts LTA4 to LTC4, HTRF detection. The settings on record: Table 2; Test 1 (unless otherwise indicated). It is filed as biochemical. The arrangement: made in house; host or cells: Pichia pastoris. On the procedure: In the assay, LTC4 synthase catalyses the reaction where the substrate LTA4 is converted to LTC4. Recombinant human LTC4 synthase is expressed in Piccia pastoralis and the purified enzyme is dissolved in 25 mM tris-buffer pH 7.8 supplemented with 0.1 mM glutathione (GSH) and stored at −80° C. The assay is performed in phosphate buffered saline (PBS) pH 7.4 and 5 mM GSH in 384-well plates.
The following is added chronologically to each well:
1. 48 μL LTC4 synthase in PBS with 5 mM GSH. The total protein concentration in this solution is 0.5 μg/mL. 2. 1 μL inhibitor in DMSO (final concentration 10 μM). 3. Incubation of the plate at room temperature for 10 min. 4. 1 μL LTA4 (final concentration 2.5 μM). 5. Incubation of the plate at room temperature for 5 min. 6. 10 μL of the incubation mixture is analysed using homogenous time resolved fluorescent (HTRF) detection.
(§1) IC50 values for title compounds of the examples are depicted in the tables hereinafter (where, they are the values obtained using Test 1, unless otherwise indicated).

For series [3], the target named is T1, LTC4 synthase. Put plainly: Test 2: LTC4 synthase IC50 procedure, ten concentrations, LTC4 HTRF kit. It is filed as biochemical. Particulars: Table 2; cells marked (Test 2). As to the method: For certain compounds, in order to obtain IC50-values for the compounds, following procedure was used: • 1. A volume (24 μL) of 0.25 μg/mL LTC4 synthase in 75 mM tris (pH ˜8.5), 0.5 mM MgCl2 and 3 mM GSH was preincubated for 10 min with 0.5 μL of compound of interest in DMSO at ten different concentrations, typically in the range 10^−9,5-10^−5M as well as with DMSO only. The buffer is used as background. Runs are performed in duplicates. • 2. The enzymatic reaction is initiated by addition of 0.5 μL LTA4 in diglyme (final assay concentration 8 μM). • 3. The reaction is stopped after 1 min by addition of double the reaction volume of a stop solution (MeOH:H2O:acetic acid 70:30:1). • 4. After 15 fold dilution in PBS, LTC4 formation is detected with LTC4 HTRF kit (Cisbio, cat. No 64LC4PEC) and a fluorescence reader. Typically 10 μL of sample is mixed with 5 μL of each of the HTRF reagents d2 and k and analyzed as described in the kit manual.
The detected product concentration, with background subtracted, is plotted versus compound concentration and IC50 is determined as 50% of maximum inhibition.
as §1

`O=C(c1ccc(C(=O)c2cccc(O)c2)c(C(=O)O)c1)c1ccc(N(CC2CC2)c2ccc(Cl)cc2)cn1` [Example 14, 5-(5-((4-Chlorophenyl)(cyclopropylmethyl)amino)picolinoyl)-2-(3-hydroxybenzoyl)benzoic acid]: the thermodynamic solubility – broadly, the concentration in solution at equilibrium with solid – at 24 h in series [1] worked out at 1210 µM (≈ 637 µg/mL). Moreover, the IC50 (as a rule, the concentration that inhibits the measured activity by half) in series [2] amounted to 30 nM.
For the compound `CN(c1ccc(Cl)cc1)c1ccc(C(=O)c2ccc(C(=O)C3CC4CCC3C4)c(C(=O)O)c2)nc1` (stereo not shown) [Example 15, 2-(Bicyclo[2.2.1]heptane-2-carbonyl)-5-(5-((4-chlorophenyl)(methyl)amino)-picolinoyl)benzoic acid], the solubility (thermodynamic) at 24 h in series [1] amounted to 1980 µM (≈ 969 µg/mL). Moreover, the IC50 in series [2] turned out to be 94 nM.
For the compound `CN(c1ccc(Cl)cc1)c1ccc(C(=O)c2ccc(C(=O)CCC3CCCCC3)c(C(=O)O)c2)nc1` [Example 18, 5-(5-((4-Chlorophenyl)(methyl)amino)picolinoyl)-2-(3-cyclohexylpropanoyl)benzoic acid], in series [1], the solubility (thermodynamic) at 24 h was found to be 37 µM (≈ 18.7 µg/mL). In series [2], this compound displayed a 50% inhibitory concentration (IC50) of 59 nM.
With `CC(=O)c1ccc(C(=O)c2ccc(N(CC3CC3)c3ccc(Cl)cc3)cn2)cc1C(=O)O` [Example 22, 2-Acetyl-5-(5-((4-chlorophenyl)(cyclopropylmethyl)amino)picolinoyl)benzoic acid], in series [3], 307 nM corresponded to half-maximal inhibition (IC50). Further, the solubility (thermodynamic) at 24 h in series [1] came out at 1860 µM (≈ 835 µg/mL).
`CCC(=O)c1ccc(C(=O)c2ccc(N(CC3CC3)c3ccc(Cl)cc3)cn2)cc1C(=O)O` [Example 23, 5-(5-((4-Chlorophenyl)(cyclopropylmethyl)amino)picolinoyl)-2-propionylbenzoic acid] displayed a 50% inhibitory concentration (IC50) in series [3] of 129 nM.
`O=C(c1ccc(C(=O)C2CC2)c(C(=O)O)c1)c1ccc(N(CC2CC2)c2ccc(Cl)cc2)cn1` [Example 24, 5-(5-((4-Chlorophenyl)(cyclopropylmethyl)amino)picolinoyl)-2-(cyclopropanecarbonyl)benzoic acid]: the midpoint of inhibition in series [3], the IC50, lay at 424 nM. Compared with the last compound, the IC50 is about 3.3-fold higher.
